From the SangsterLogP compilation

Test: method code SF-GLC, from DOI: 10.1016/s0022-3565(25)29827-5, PMID: 4823294
Conditions: pH 7.4

SMILES | logD
CCCCCOC(N)=O | 1.35
CCCOC(N)=O | 0.36
CCCCCCCOC(N)=O | 2.36
CC(C)(C)COC(N)=O | 0.94
CCC(C)(C)COC(N)=O | 1.45
CC(C)(C)OC(N)=O | 0.48
NC(=O)OCc1ccccc1 | 1.23
CCCCOC(N)=O | 0.85
CCCCCCOC(N)=O | 1.85
CCCCCCCCOC(N)=O | 2.84
